Source: patent publication US11332438B2, “Creatine prodrugs, compositions and methods of use thereof” (Ultragenyx Pharmaceutical Inc., priority 2017, dated 2022)

Assays:
[1] = Chemical stability in simulated intestinal fluid (SIF) without pancreatin; format: physicochemical; settings: Table 2A, 50 μM prodrug
Description: Chemical stability of creatine prodrugs in phosphate buffered saline (PBS), simulated intestinal fluid (SIF) without pancreatin, simulated gastric fluid (SGF) without pepsin were determined by LC-UV, LC-CAD, LC-UV-CAD or LC-MS/MS as appropriate. Creatine prodrugs of the present disclosure (50 μM) were incubated at 37° C. according to described protocols and prodrug levels were compared between t=0, t=15, t=60, and t=120 mins by peak area ratio to determine the percentage remained at t=120 mins (2 h).
Protocol for PBS, SIF and SGF stability for screening:
Prodrugs (50 μM) were incubated in PBS, FaSSIF (Biorelevant) or FaSSGF (Biorelevant) at 37° C.

[2] = target: T1, creatine transporter (Rattus norvegicus, UniProt P28570); experiment: Co-administration with creatine transporter blocker beta-guanidinopropionic acid (GPA), d3-Cr in WT rat brain; format: in vivo
T1 construct: from tissue; host or cells: WT rat, in vivo (brain / blood-brain barrier)
T1 sequence (P28570 1-635): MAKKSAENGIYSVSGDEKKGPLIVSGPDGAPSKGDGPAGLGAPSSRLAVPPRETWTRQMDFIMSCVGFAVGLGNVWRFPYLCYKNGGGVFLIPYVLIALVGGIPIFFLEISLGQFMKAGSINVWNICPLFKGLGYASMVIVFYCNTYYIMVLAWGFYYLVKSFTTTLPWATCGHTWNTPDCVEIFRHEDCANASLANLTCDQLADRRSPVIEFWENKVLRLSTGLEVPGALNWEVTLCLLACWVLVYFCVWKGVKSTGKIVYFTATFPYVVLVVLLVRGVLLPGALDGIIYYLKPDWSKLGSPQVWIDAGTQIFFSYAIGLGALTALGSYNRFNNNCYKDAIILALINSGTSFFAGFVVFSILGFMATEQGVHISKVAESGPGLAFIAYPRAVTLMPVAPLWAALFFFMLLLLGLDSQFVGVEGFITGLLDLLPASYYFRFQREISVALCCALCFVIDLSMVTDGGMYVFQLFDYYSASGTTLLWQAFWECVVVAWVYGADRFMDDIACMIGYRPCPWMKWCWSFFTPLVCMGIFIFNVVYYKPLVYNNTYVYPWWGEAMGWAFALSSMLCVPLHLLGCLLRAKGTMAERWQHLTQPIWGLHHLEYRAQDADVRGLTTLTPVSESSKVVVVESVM

Structure (SMILES): Cl.[2H]C([2H])([2H])N(CC(=O)OCC)C(=N)NC(=O)CCCCCCCCCC [Compound 8]
- Chemical Stability SIF, no enzyme % T0 at 2 hours at 37 °C. [1]: 17%
- levels of d3-Cr in WT rat brains with co-administration of GPA compared to dosing alone [2]: did not change
